Test results reported in patent publication US9782377B2, “Composition for normalization of infradian rhythm” (SUNTORY HOLDINGS LIMITED, priority 2003, dated 2017).

Tested on: male Fischer rats
Test: Days until circadian rhythm synchronized after 6-hour backward/forward phase change of light-and-dark cycle
Format: in vivo, rat
Conditions: for days required for synchronization, backward movement of the phase: 6 hours backward; for days required for synchronization, forward movement of the phase: 6 hours forward

CCCCC/C=C\C/C=C\C/C=C\C/C=C\CCCC(=O)OC(COC(=O)CCCCCCC)COC(=O)CCCCCCC [8A8, 1,3-capryloyl-2-arachidonoyl-glycerol]
time (days) required for synchronization (overall conclusion on ingestion of 8A8 versus control feed): shortened
days required for synchronization, backward movement of the phase (rats of 2 months age, 8A8-compounded feed (control feed group 3.7 days)): 4.1 days
days required for synchronization, forward movement of the phase (rats of 2 months age, 8A8-compounded feed (control feed group 9.8 days)): 9.43 days
days required for synchronization, backward movement of the phase (rats of 18 months age, 8A8-compounded feed (control feed group 7.28 days)): 5.72 days
days required for synchronization, forward movement of the phase (rats of 18 months age, 8A8-compounded feed (control feed group 5.63 days)): 3.32 days
